Test results taken from ChEMBL document CHEMBL4665624, “Synthesis of 5-(4-(1H-phenanthro[9,10-d]imidazol-2-yl)benzylidene)thiazolidine-2,4-dione as promising DNA and serum albumin-binding agents and evaluation of antitumor activity” (Eur J Med Chem, 2019).

What was measured:
UACC-62 = experiment: Antitumor activity against human UACC-62 cells assessed as cell growth inhibition at 10 uM incubated for 48 hrs by sulforhodamine B assay; format: functional; details: read-out: GI
HOP-92 = experiment: Antitumor activity against human HOP92 cells assessed as cell growth inhibition at 10 uM incubated for 48 hrs by sulforhodamine B assay; format: functional; details: read-out: GI
MOLT-4 = experiment: Antitumor activity against human MOLT4 cells assessed as cell growth inhibition at 10 uM incubated for 48 hrs by sulforhodamine B assay; format: functional; details: read-out: GI
SNB-19 = experiment: Antitumor activity against human SNB-19 cells assessed as cell growth inhibition at 10 uM incubated for 48 hrs by sulforhodamine B assay; format: functional; details: read-out: GI
M14 = experiment: Antitumor activity against human M14 cells assessed as cell growth inhibition at 10 uM incubated for 48 hrs by sulforhodamine B assay; format: functional; details: read-out: GI
NCI-H522 = experiment: Antitumor activity against human NCI-H522 cells assessed as cell growth inhibition at 10 uM incubated for 48 hrs by sulforhodamine B assay; format: functional; details: read-out: GI
SW-620 = experiment: Antitumor activity against human SW620 cells assessed as cell growth inhibition at 10 uM incubated for 48 hrs by sulforhodamine B assay; details: SW-620, 48 h, read-out: GI
HCT-116 = experiment: Antitumor activity against human HCT116 cells assessed as cell growth inhibition at 10 uM incubated for 48 hrs by sulforhodamine B assay; format: functional; details: read-out: GI
K562 = experiment: Antitumor activity against human K562 cells assessed as cell growth inhibition at 10 uM incubated for 48 hrs by sulforhodamine B assay; format: functional; details: read-out: GI
MDA-MB-468 = experiment: Antitumor activity against human MDA-MB-468 cells assessed as cell growth inhibition at 10 uM incubated for 48 hrs by sulforhodamine B assay; format: functional; details: read-out: GI
A498 = experiment: Antitumor activity against human A498 cells assessed as cell growth inhibition at 10 uM incubated for 48 hrs by sulforhodamine B assay; format: functional; details: read-out: GI
EKVX = experiment: Antitumor activity against human EKVX cells assessed as cell growth inhibition at 10 uM incubated for 48 hrs by sulforhodamine B assay; format: functional; details: read-out: GI
U-251 = experiment: Antitumor activity against human U251 cells assessed as cell growth inhibition at 10 uM incubated for 48 hrs by sulforhodamine B assay; format: functional; details: read-out: GI
SK-MEL-28 = experiment: Antitumor activity against human SK-MEL-28 cells assessed as cell growth inhibition at 10 uM incubated for 48 hrs by sulforhodamine B assay; format: functional; details: read-out: GI
OVCAR-3 = experiment: Antitumor activity against human OVCAR-3 cells assessed as cell growth inhibition at 10 uM incubated for 48 hrs by sulforhodamine B assay; format: functional; details: read-out: GI
LOX IMVI = experiment: Antitumor activity against human LOX IMVI cells assessed as cell growth inhibition at 10 uM incubated for 48 hrs by sulforhodamine B assay; format: functional; details: read-out: GI
HCC 2998 = experiment: Antitumor activity against human HCC2998 cells assessed as cell growth inhibition at 10 uM incubated for 48 hrs by sulforhodamine B assay; format: functional; details: read-out: GI
OVCAR-4 = experiment: Antitumor activity against human OVCAR-4 cells assessed as cell growth inhibition at 10 uM incubated for 48 hrs by sulforhodamine B assay; format: functional; details: read-out: GI
CCRF-CEM = experiment: Antitumor activity against human CCRF-CEM cells assessed as cell growth inhibition at 10 uM incubated for 48 hrs by sulforhodamine B assay; format: functional; details: read-out: GI
Hs-578T = experiment: Antitumor activity against human HS 578T cells assessed as cell growth inhibition at 10 uM incubated for 48 hrs by sulforhodamine B assay; format: functional; details: read-out: GI
IGROV-1 = experiment: Antitumor activity against human IGROV1 cells assessed as cell growth inhibition at 10 uM incubated for 48 hrs by sulforhodamine B assay; format: functional; details: read-out: GI
MDA-MB-231 = experiment: Antitumor activity against human MDA-MB-231/ATCC cells assessed as cell growth inhibition at 10 uM incubated for 48 hrs by sulforhodamine B assay; format: functional; details: read-out: GI
NCI-H23 = experiment: Antitumor activity against human NCI-H23 cells assessed as cell growth inhibition at 10 uM incubated for 48 hrs by sulforhodamine B assay; format: functional; details: read-out: GI
ACHN = experiment: Antitumor activity against human ACHN cells assessed as cell growth inhibition at 10 uM incubated for 48 hrs by sulforhodamine B assay; format: functional; details: read-out: GI
NCI/ADR-RES = experiment: Antitumor activity against human NCI/ADR-RES cells assessed as cell growth inhibition at 10 uM incubated for 48 hrs by sulforhodamine B assay; format: functional; details: read-out: GI
SR = experiment: Antitumor activity against human SR cells assessed as cell growth inhibition at 10 uM incubated for 48 hrs by sulforhodamine B assay; format: functional; details: read-out: GI
HCT-15 = experiment: Antitumor activity against human HCT15 cells assessed as cell growth inhibition at 10 uM incubated for 48 hrs by sulforhodamine B assay; format: functional; details: read-out: GI
NCI-H226 = experiment: Antitumor activity against human NCI-H226 assessed as cell growth inhibition at 10 uM incubated for 48 hrs by sulforhodamine B assay; format: functional; details: read-out: GI
UO-31 = experiment: Antitumor activity against human UO-31 cells assessed as cell growth inhibition at 10 uM incubated for 48 hrs by sulforhodamine B assay; format: functional; details: read-out: GI
HL-60(TB) = experiment: Antitumor activity against human HL-60(TB) cells assessed as cell growth inhibition at 10 uM incubated for 48 hrs by sulforhodamine B assay; format: functional; details: read-out: GI
BT-549 = experiment: Antitumor activity against human BT-549 cells assessed as cell growth inhibition at 10 uM incubated for 48 hrs by sulforhodamine B assay; format: functional; details: read-out: GI
MCF7 = experiment: Antitumor activity against human MCF7 cells assessed as cell growth inhibition at 10 uM incubated for 48 hrs by sulforhodamine B assay; format: functional; details: read-out: GI
SN12C = experiment: Antitumor activity against human SN12C cells assessed as cell growth inhibition at 10 uM incubated for 48 hrs by sulforhodamine B assay; format: functional; details: read-out: GI
KM12 = experiment: Antitumor activity against human KM12 cells assessed as cell growth inhibition at 10 uM incubated for 48 hrs by sulforhodamine B assay; format: functional; details: read-out: GI
Malme-3M = experiment: Antitumor activity against human MALME-3M cells assessed as cell growth inhibition at 10 uM incubated for 48 hrs by sulforhodamine B assay; format: functional; details: read-out: GI
SF-295 = experiment: Antitumor activity against human SF295 cells assessed as cell growth inhibition at 10 uM incubated for 48 hrs by sulforhodamine B assay; format: functional; details: read-out: GI
PC-3 = experiment: Antitumor activity against human PC-3 cells assessed as cell growth inhibition at 10 uM incubated for 48 hrs by sulforhodamine B assay; format: functional; details: read-out: GI
SK-OV-3 = experiment: Antitumor activity against human SK-OV-3 cells assessed as cell growth inhibition at 10 uM incubated for 48 hrs by sulforhodamine B assay; format: functional; details: read-out: GI
OVCAR-8 = experiment: Antitumor activity against human OVCAR-8 cells assessed as cell growth inhibition at 10 uM incubated for 48 hrs by sulforhodamine B assay; format: functional; details: read-out: GI
RPMI-8226 = experiment: Antitumor activity against human RPMI8226 cells assessed as cell growth inhibition at 10 uM incubated for 48 hrs by sulforhodamine B assay; format: functional; details: read-out: GI
SNB-75 = experiment: Antitumor activity against human SNB-75 cells assessed as cell growth inhibition at 10 uM incubated for 48 hrs by sulforhodamine B assay; format: functional; details: read-out: GI
RXF 393 = experiment: Antitumor activity against human RXF 393 cells assessed as cell growth inhibition at 10 uM incubated for 48 hrs by sulforhodamine B assay; format: functional; details: read-out: GI
786-0 = experiment: Antitumor activity against human 786-0 cells assessed as cell growth inhibition at 10 uM incubated for 48 hrs by sulforhodamine B assay; format: functional; details: read-out: GI
COLO 205 = experiment: Antitumor activity against human COLO205 cells assessed as cell growth inhibition at 10 uM incubated for 48 hrs by sulforhodamine B assay; format: functional; details: read-out: GI
SF-268 = experiment: Antitumor activity against human SF268 cells assessed as cell growth inhibition at 10 uM incubated for 48 hrs by sulforhodamine B assay; format: functional; details: read-out: GI
MDA-MB-435 = experiment: Antitumor activity against human MDA-MB-435 cells assessed as cell growth inhibition at 10 uM incubated for 48 hrs by sulforhodamine B assay; format: functional; details: read-out: GI
HT-29 = experiment: Antitumor activity against human HT-29 cells assessed as cell growth inhibition at 10 uM incubated for 48 hrs by sulforhodamine B assay; format: functional; details: read-out: GI
NCI-H460 = experiment: Antitumor activity against human NCI-H460 assessed as cell growth inhibition at 10 uM incubated for 48 hrs by sulforhodamine B assay; format: functional; details: read-out: GI

For `Oc1ccccc1-c1nc2c3ccccc3c3ccccc3c2o1`, the inhibition of growth at 10 µM (UACC-62) was 11.6%, the inhibition of growth at 10 µM (HOP-92) was 16.2% and the inhibition of growth at 10 µM (MOLT-4) was less than 10%. It also gave an inhibition of growth at 10 µM (SNB-19) of less than 10%, an inhibition of growth at 10 µM (M14) of less than 10% and an inhibition of growth at 10 µM (NCI-H522) of less than 10%. It also gave an inhibition of growth at 10 µM (SW-620) of 31.6%, an inhibition of growth at 10 µM (HCT-116) of 19.2% and an inhibition of growth at 10 µM (K562) of 11.9%. It also gave an inhibition of growth at 10 µM (MDA-MB-468) of 17%, an inhibition of growth at 10 µM (A498) of less than 10% and an inhibition of growth at 10 µM (EKVX) of 21.2%. For the same compound, the inhibition of growth at 10 µM (U-251) was 18%, the inhibition of growth at 10 µM (SK-MEL-28) was less than 10% and the inhibition of growth at 10 µM (OVCAR-3) was less than 10%. For the same compound, the inhibition of growth at 10 µM (LOX IMVI) was less than 10%, the inhibition of growth at 10 µM (HCC 2998) was less than 10% and the inhibition of growth at 10 µM (OVCAR-4) was 23.6%. For the same compound, the inhibition of growth at 10 µM (CCRF-CEM) was 17.9%, the inhibition of growth at 10 µM (Hs-578T) was 10.5% and the inhibition of growth at 10 µM (IGROV-1) was 25.9%. The inhibition of growth at 10 µM (MDA-MB-231) was 18.3%, the inhibition of growth at 10 µM (NCI-H23) was 14.5% and the inhibition of growth at 10 µM (ACHN) was less than 10%. The inhibition of growth at 10 µM (NCI/ADR-RES) was less than 10%, the inhibition of growth at 10 µM (SR) was 26.3% and the inhibition of growth at 10 µM (HCT-15) was less than 10%. For the same compound, the inhibition of growth at 10 µM (NCI-H226) was 14.2%, the inhibition of growth at 10 µM (UO-31) was 39% and the inhibition of growth at 10 µM (HL-60(TB)) was 12%. For the same compound, the inhibition of growth at 10 µM (BT-549) was less than 10%, the inhibition of growth at 10 µM (MCF7) was 37.6% and the inhibition of growth at 10 µM (SN12C) was 17%. For the same compound, the inhibition of growth at 10 µM (KM12) was less than 10%, the inhibition of growth at 10 µM (Malme-3M) was less than 10% and the inhibition of growth at 10 µM (SF-295) was less than 10%. The inhibition of growth at 10 µM (PC-3) was 22.2%, the inhibition of growth at 10 µM (SK-OV-3) was less than 10% and the inhibition of growth at 10 µM (OVCAR-8) was 11%. The inhibition of growth at 10 µM (RPMI-8226) was 24.5%, the inhibition of growth at 10 µM (SNB-75) was 10.3% and the inhibition of growth at 10 µM (RXF 393) was less than 10%. It also gave an inhibition of growth at 10 µM (786-0) of less than 10%, an inhibition of growth at 10 µM (COLO 205) of 14.3% and an inhibition of growth at 10 µM (SF-268) of 10.2%. It also gave an inhibition of growth at 10 µM (MDA-MB-435) of less than 10%, an inhibition of growth at 10 µM (HT-29) of less than 10% and an inhibition of growth at 10 µM (NCI-H460) of 30.4%.
